The values below come from patent US11040035B2, “3-oxo-2,6-diphenyl-2,3-dihydropyridazine-4-carboxamides” (BAYER PHARMA AKTIENGESELLSCHAFT, priority 2016, dated 2021).

Broadly, the IC50 is the concentration that gives 50% inhibition. As usually defined, the pIC50 is the negative decadic logarithm of the IC50, by convention in mol/L.

In series [1] the target is T1, AHR (Homo sapiens, UniProt P35869).
T1 sequence (P35869 11-848): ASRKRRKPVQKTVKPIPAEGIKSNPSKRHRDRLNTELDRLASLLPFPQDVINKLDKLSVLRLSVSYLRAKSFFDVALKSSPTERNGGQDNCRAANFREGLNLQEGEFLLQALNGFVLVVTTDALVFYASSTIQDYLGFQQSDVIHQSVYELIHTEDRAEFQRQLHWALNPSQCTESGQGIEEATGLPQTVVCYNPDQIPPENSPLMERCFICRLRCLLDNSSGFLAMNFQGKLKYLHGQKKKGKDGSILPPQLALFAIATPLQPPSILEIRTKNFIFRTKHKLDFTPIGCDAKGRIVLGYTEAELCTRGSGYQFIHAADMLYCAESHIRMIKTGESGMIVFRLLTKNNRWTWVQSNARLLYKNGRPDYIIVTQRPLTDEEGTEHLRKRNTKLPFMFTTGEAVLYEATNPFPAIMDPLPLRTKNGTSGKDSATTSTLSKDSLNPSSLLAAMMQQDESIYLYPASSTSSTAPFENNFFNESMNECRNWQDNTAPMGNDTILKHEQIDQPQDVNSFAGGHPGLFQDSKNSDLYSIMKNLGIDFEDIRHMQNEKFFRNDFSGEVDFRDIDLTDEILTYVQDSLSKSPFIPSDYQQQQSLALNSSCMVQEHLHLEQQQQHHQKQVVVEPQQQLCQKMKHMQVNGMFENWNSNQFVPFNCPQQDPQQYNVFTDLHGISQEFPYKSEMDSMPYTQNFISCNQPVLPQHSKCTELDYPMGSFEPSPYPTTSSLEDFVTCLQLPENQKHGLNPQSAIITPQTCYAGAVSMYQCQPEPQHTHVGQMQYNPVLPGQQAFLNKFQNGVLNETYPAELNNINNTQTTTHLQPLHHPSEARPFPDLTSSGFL
The series can be described thus: In vitro assay 1: antagonism in human cell line (transactivation assay, kynurenic acid prestimulated). The note with it: Assay 1: AHR-luc Hum Antagonism IC50 [M], 150 μM kynurenic acid, 20 hours, firefly luciferase.

For series [2], the system named is AHR-regulated gene CYP1A1. Description: In vitro assay 3: AHR-regulated CYP1A1 expression in human cell line (U937, qPCR). The note with it: for IC50: Homo sapiens, U-937, 6 h, read-out: Assay 3: Hum CYP1A1 Antagonism IC50 [M], U937 cells, 200 μM KA, 6 hours, qPCR; for pIC50: read-out: Assay 3: Hum CYP1A1 Antagonism IC50, U937 cells, 200 μM KA, 6 hours, qPCR. Background: In qPCR the cycle at which signal appears reflects the starting amount.

Series [3] deals with T1, AHR. The series can be described thus: In vitro assay 2: agonism in human cell line (transactivation assay). The note with it: for IC50: Assay 2: AHR-luc Hum Agonism IC50 [M], no kynurenic acid, 20 hours, firefly luciferase; for pIC50: read-out: Assay 2: AHR-luc Hum Agonism IC50, no kynurenic acid, 20 hours, firefly luciferase.

Each structure is given as a SMILES string. pIC50: −log10 of the molar value. Where two headings read alike, the source gives them in different places.

In the case of `CC(C)(O)C(NC(=O)c1cc(-c2ccc(C(F)(F)F)cc2)nn(-c2cccc(F)c2)c1=O)C(F)(F)F` (single isomer, unassigned; (-)) [Example 394, (−)-2-(3-fluorophenyl)-3-oxo-N-(1,1,1-trifluoro-3-hydroxy-3-methylbutan-2-yl)-6-[4-(trifluoromethyl)phenyl]-2,3-dihydropyridazine-4-carboxamide], the figures for the IC50 in series [1], in series [2] and in series [3] were 2.8e-08 M, 9.5e-08 M and over 2e-05 M, respectively.
Take `CC(O)C(NC(=O)c1cc(-c2ccc(Cl)cc2)nn(-c2cccc(F)c2)c1=O)C(F)(F)F` (mixture of isomers) [Example 197, 6-(4-Chlorophenyl)-2-(3-fluorophenyl)-3-oxo-N-[(2RS, 3RS)-1,1,1-trifluoro-3-hydroxybutan-2-yl]-2,3-dihydropyridazine-4-carboxamide and 6-(4-Chlorophenyl)-2-(3-fluorophenyl)-3-oxo-N-[(2RS, 3SR)-1,1,1-trifluoro-3-hydroxybutan-2-yl]-2,3-dihydropyridazine-4-carboxamide]: the IC50 in series [1] was 1.97e-08 M; in series [2], 1.82e-08 M; in series [3], over 2e-05 M.
For `C[C@@H](CO)NC(=O)c1cc(-c2ccc(OC(F)(F)F)cc2)nn(-c2cccc(F)c2)c1=O` [Example 173, 2-(3-Fluorophenyl)-N-[(2S)-1-hydroxypropan-2-yl]-3-oxo-6-[4-(trifluoromethoxy)phenyl]-2,3-dihydropyridazine-4-carboxamide], the IC50 in series [1] was 3.31e-08 M; in series [2] it was 9.1e-08 M; in series [3], over 2e-05 M.
`O=C(N[C@H]1C[C@@H](O)C1)c1cc(-c2ccc(Cl)cc2)nn(-c2cccc(F)c2)c1=O` [Example 324, 6-(4-chlorophenyl)-2-(3-fluorophenyl)-N-(cis-3-hydroxycyclobutyl)-3-oxo-2,3-dihydropyridazine-4-carboxamide]: the IC50 in series [1] was 4.67e-08 M; in series [2] it was 8.18e-08 M; in series [3], over 2e-05 M.
As for `O=C(N[C@H](CO)Cc1ccccc1)c1cc(-c2ccc(C(F)(F)F)cc2)nn(-c2cccc(F)c2)c1=O` [Example 251, 2-(3-Fluorophenyl)-N-[(2S)-1-hydroxy-3-phenylpropan-2-yl]-3-oxo-6-[4-(trifluoromethyl)phenyl]-2,3-dihydropyridazine-4-carboxamide], the values for the IC50 in series [1], in series [2] and in series [3] were 5.09e-06 M, 3.67e-08 M and over 2e-05 M, respectively.
For `C[C@H](O)[C@H](C)NC(=O)c1cc(-c2ccc(Cl)cc2)nn(-c2cccc(F)c2)c1=O` [Example 114, 6-(4-Chlorophenyl)-2-(3-fluorophenyl)-N-[(2S,3S)-3-hydroxybutan-2-yl]-3-oxo-2,3-dihydropyridazine-4-carboxamide], in that order: 2.3e-08 M, 5.27e-08 M and over 2e-05 M.
For `O=C(NC(CO)CF)c1cc(-c2ccc(Cl)cc2)nn(-c2cccc(F)c2)c1=O` (racemic) [Example 323, 6-(4-chlorophenyl)-N-[(2RS)-1-fluoro-3-hydroxypropan-2-yl]-2-(3-fluorophenyl)-3-oxo-2,3-dihydropyridazine-4-carboxamide], in that order: 2.43e-08 M, 3.2e-08 M and over 2e-05 M.
For `CC(CCO)NC(=O)c1cc(-c2ccc(C(F)(F)F)cc2)nn(-c2cccc(F)c2)c1=O` (racemic) [Example 253, 2-(3-Fluorophenyl)-N-[(2RS)-4-hydroxybutan-2-yl]-3-oxo-6-[4-(trifluoromethyl)phenyl]-2,3-dihydropyridazine-4-carboxamide], in that order: 2.89e-08 M, 3.62e-08 M and over 2e-05 M.
With `Cc1ccc(-c2cc(C(=O)NCC(O)C(C)C)c(=O)n(-c3cccc(F)c3)n2)cc1` (single isomer, unassigned; enantiomer 1) [Example 11, 2-(3-Fluorophenyl)-N-(2-hydroxy-3-methylbutyl)-6-(4-methylphenyl)-3-oxo-2,3-dihydropyridazine-4-carboxamide, enantiomer 1], the IC50 in series [1] was 7.94e-08 M; in series [2], 1.71e-07 M; in series [3], over 2e-05 M.
`O=C(NCC(O)C(F)(F)F)c1cc(-c2ccc(OC(F)(F)F)cc2)nn(-c2cccc(F)c2)c1=O` (single isomer, unassigned) [Example 184, 2-(3-Fluorophenyl)-3-oxo-N-(3,3,3-trifluoro-2-hydroxypropyl)-6-[4-(trifluoromethoxy)phenyl]-2,3-dihydropyridazine-4-carboxamide] gave an IC50 in series [1] of 1.34e-07 M. The pIC50 was 6.89 in series [2] and under 4.70 in series [3].
`O=C(N[C@H]1CC[C@@H]1O)c1cc(-c2ccc(Cl)cc2)nn(-c2cccc(F)c2)c1=O` (racemic) [Example 348, 6-(4-chlorophenyl)-2-(3-fluorophenyl)-N-(trans-2-hydroxycyclobutyl)-3-oxo-2,3-dihydropyridazine-4-carboxamide]: the half-inhibitory concentration (IC50) is 5.11e-08 M in series [1], 1.37e-07 M in series [2] and over 2e-05 M in series [3].
With `O=C(NCC(O)C(F)(F)F)c1cc(-c2ccc(C(F)F)cc2)nn(-c2cccc(F)c2)c1=O` (single isomer, unassigned) [Example 96, 6-[4-(Difluoromethyl)phenyl]-2-(3-fluorophenyl)-3-oxo-N-(3,3,3-trifluoro-2-hydroxypropyl)-2,3-dihydropyridazine-4-carboxamide], it took 2.92e-08 M to reach half-maximal inhibition in series [1] (IC50). Further, the figures for the pIC50 in series [2] and in series [3] were 7.39 and under 4.70, respectively.
As to `O=C(N[C@H](CO)C(F)(F)F)c1cc(-c2ccc(C(F)F)cc2)nn(-c2cccc(F)c2)c1=O` [Example 296, 6-[4-(Difluoromethyl)phenyl]-2-(3-fluorophenyl)-3-oxo-N-[(2R)-1,1,1-trifluoro-3-hydroxypropan-2-yl]-2,3-dihydropyridazine-4-carboxamide], the IC50 in series [1] is 3.66e-09 M; in series [2], 6.22e-09 M; in series [3] it was over 2e-05 M.
The corresponding values for `O=C(N[C@H]1COC[C@H]1O)c1cc(-c2ccc(Cl)cc2)nn(-c2cccc(F)c2)c1=O` [Example 166, 6-(4-Chlorophenyl)-2-(3-fluorophenyl)-N-[(3S,4S)-4-hydroxytetrahydrofuran-3-yl]-3-oxo-2,3-dihydropyridazine-4-carboxamide] are 4.05e-08 M, 4.47e-08 M and over 2e-05 M.
`O=C(N[C@@H]1COC[C@@H]1O)c1cc(-c2ccc(C(F)(F)F)cc2)nn(-c2cccc(F)c2)c1=O` (single isomer, unassigned) [Example 345, (−)-2-(3-fluorophenyl)-N-(cis-4-hydroxytetrahydrofuran-3-yl)-3-oxo-6-[4-(trifluoromethyl)phenyl]-2,3-dihydropyridazine-4-carboxamide]: in series [1], 1.58e-08 M corresponded to half-maximal inhibition (IC50). For the same compound, the results for the pIC50 in series [2] and in series [3] were 7.27 and under 4.70, respectively.
For the compound `O=C(NCC(O)C(F)(F)F)c1cc(-c2ccc(Cl)cc2)nn(-c2cccc(F)c2)c1=O` (single isomer, unassigned) [Example 27, 6-(4-Chlorophenyl)-2-(3-fluorophenyl)-3-oxo-N-(3,3,3-trifluoro-2-hydroxypropyl)-2,3-dihydropyridazine-4-carboxamide], the IC50 in series [1] came out at 1.06e-07 M. Also, the pIC50 in series [2] was 6.61; in series [3], under 4.70.
With `COc1ccc(-c2cc(C(=O)NC(CO)C(F)(F)F)c(=O)n(-c3cccc(F)c3)n2)cc1` (single isomer, unassigned) [Example 101, 2-(3-fluorophenyl)-6-(4-methoxyphenyl)-3-oxo-N-(1,1,1-trifluoro-3-hydroxypropan-2-yl)-2,3-dihydropyridazine-4-carboxamide], the values for the IC50 in series [1] and in series [3] were 1.24e-08 M and over 2e-05 M, respectively. Moreover, the pIC50 in series [2] was 7.73.
Take `CC(C)C[C@@H](CO)NC(=O)c1cc(-c2ccc(Cl)cc2)nn(-c2cccc(F)c2)c1=O` [Example 37, 6-(4-Chlorophenyl)-2-(3-fluorophenyl)-N-[(2S)-1-hydroxy-4-methylpentan-2-yl]-3-oxo-2,3-dihydropyridazine-4-carboxamide]: the IC50 in series [1] is 1.31e-07 M; in series [2] it was 1.56e-07 M; in series [3], over 2e-05 M.
